Results on 15 molecules are retold here after patent US20240279241A1, “PYRIDO[4,3-D]PYRIMIDINE COMPOUNDS CAPABLE OF INHIBITING KRAS MUTANT PROTEINS” (Redx Pharma PLC, priority 2021, published 2024).

Holding throughout (format): biochemical
One assay addresses T1, KRAS WT (Homo sapiens, UniProt P01116).
T1 construct: Recombinant human RAS protein (2 nM); aa1-188 KRAS WT
As to the kind of experiment: HTRF nucleotide exchange assay (NEA), KRAS WT. How it is done:
(§1) The capacity of compounds to bind KRAS G12D, other KRAS mutants and wildtype RAS isoforms was quantified using a HTRF nucleotide exchange assay. Recombinant human RAS protein (2 nM; aa1-188 KRAS WT, HRAS WT, NRAS WT, or KRAS containing the containing the G12D, G13D or Q61H amino acid substitutions, or 4 nM KRAS; aa1-188 containing the G12V, G12C, G12A or G12S amino acid substitution, an N-terminal 6×His-tag and leader sequence), and 2 nM Europium-labeled anti-6×His antibody were mixed in assay buffer (10 mM HEPES pH7.3, 150 mM NaCl, 5 mM MgCl2, 0.05% BSA, 0.0025% NP-40 and 100 mM KF) with various concentrations of compound in a 384-well plate and a volume of 5 uL. After a 60-minute incubation at room temperature, 5 ul of 200 nM EDA-GTP-DY647P1 (diluted in assay buffer) was added to the plate. Following 30-minute incubation at room temperature, time-resolved fluorescence was measured on a PerkinElmer Envision plate reader. DMSO (0.3%) and unlabeled […] (1 μM) or equivalent tool compound were used to generate the Max and Min assay signals, respectively. Data was analysed using a four-parameter logistic model to calculate IC50 values, with at least two independent replicates were performed for each compound.

In another assay the target is T2, KRAS G12V (Homo sapiens, UniProt P01116, G12V).
T2 construct: 4 nM KRAS; aa1-188 containing the G12V, G12C, G12A or G12S amino acid substitution
As to the kind of experiment: HTRF nucleotide exchange assay (NEA), KRAS G12V. How it is done:
as §1
A general note: TR-FRET usually uses a lanthanide donor and a delayed reading to cut background.

Another assay deals with T3, KRAS G12D (Homo sapiens, UniProt P01116, G12D).
T3 construct: Recombinant human RAS protein (2 nM)
Nature of the assay: HTRF nucleotide exchange assay (NEA), KRAS G12D. The note with it: recombinant human KRAS G12D aa1-188, 2 nM; lowest class = % inhibition at 10 μM. How it is done:
as §1

A further assay has as its target T4, KRAS G12C (Homo sapiens, UniProt P01116, G12C).
T4 construct: 4 nM KRAS; aa1-188 containing the G12V, G12C, G12A or G12S amino acid substitution
Nature of the assay: HTRF nucleotide exchange assay (NEA), KRAS G12C. How it is done:
as §1

Like-named read-outs stand apart in the source and are kept apart here.

T1 sequence (P01116 1-188 isoform P01116-2): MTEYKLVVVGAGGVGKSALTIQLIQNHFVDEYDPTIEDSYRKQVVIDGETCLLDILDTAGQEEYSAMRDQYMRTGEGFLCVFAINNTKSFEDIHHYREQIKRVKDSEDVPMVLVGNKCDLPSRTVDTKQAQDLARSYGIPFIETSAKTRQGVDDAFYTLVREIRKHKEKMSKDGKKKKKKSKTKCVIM
T4 sequence (P01116 1-188 isoform P01116-2 G12C): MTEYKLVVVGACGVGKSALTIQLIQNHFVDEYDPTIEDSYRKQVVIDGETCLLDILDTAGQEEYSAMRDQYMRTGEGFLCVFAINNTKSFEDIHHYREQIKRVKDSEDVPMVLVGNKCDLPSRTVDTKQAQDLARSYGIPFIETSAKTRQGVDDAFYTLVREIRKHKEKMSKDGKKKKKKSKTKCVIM
T3 sequence (P01116 1-188 isoform P01116-2 G12D): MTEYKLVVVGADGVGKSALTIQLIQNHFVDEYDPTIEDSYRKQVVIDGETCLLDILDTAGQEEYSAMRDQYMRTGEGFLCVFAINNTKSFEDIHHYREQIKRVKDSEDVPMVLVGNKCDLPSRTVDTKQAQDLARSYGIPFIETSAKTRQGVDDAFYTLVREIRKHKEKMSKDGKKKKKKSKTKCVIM
T2 sequence (P01116 1-188 isoform P01116-2 G12V): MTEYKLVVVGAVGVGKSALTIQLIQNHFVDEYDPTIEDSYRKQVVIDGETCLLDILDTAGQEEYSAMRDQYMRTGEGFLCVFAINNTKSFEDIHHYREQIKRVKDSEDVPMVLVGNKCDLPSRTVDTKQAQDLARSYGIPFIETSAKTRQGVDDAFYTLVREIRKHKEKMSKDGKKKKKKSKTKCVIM

Broadly, the IC50 is the concentration needed to halve the response being measured. For `CC1CN(c2nc(OCC34CCCN3CCC4)nc3c(F)c(-c4cc(O)cc5ccccc45)ncc23)CCO1` (stereo not drawn) [Example 6, 4-[8-fluoro-2-(1,2,3,5,6,7-hexahydropyrrolizin-8-ylmethoxy)-4-(2-methylmorpholin-4-yl)pyrido[4,3-d]pyrimidin-7-yl]naphthalen-2-ol], the IC50 at KRAS WT, against KRAS G12V, at KRAS G12D and at KRAS G12C was 100 to 10000 nM in each case.

Regarding `Oc1cc(-c2ncc3c(N4CC5CCC(C4)O5)nc(OCC45CCCN4CCC5)nc3c2F)c2ccccc2c1` [Example 7, 4-[8-fluoro-2-(1,2,3,5,6,7-hexahydropyrrolizin-8-ylmethoxy)-4-(8-oxa-3-azabicyclo[3.2.1]octan-3-yl)pyrido[4,3-d]pyrimidin-7-yl]naphthalen-2-ol], the IC50 against KRAS WT, at KRAS G12V, at KRAS G12D and on KRAS G12C was 100 to 10000 nM throughout.

On to `COCCCNc1nc(OCC23CCCN2CCC3)nc2c(F)c(-c3cc(O)cc4ccccc34)ncc12` [Example 11, 4-[8-fluoro-2-(1,2,3,5,6,7-hexahydropyrrolizin-8-ylmethoxy)-4-(3-methoxypropylamino)pyrido[4,3-d]pyrimidin-7-yl]naphthalen-2-ol], for which the IC50 at KRAS WT fell in the range of 100 to 10000 nM; against KRAS G12V, 100 to 10000 nM; at KRAS G12D, 10 to 100 nM; against KRAS G12C, 100 to 10000 nM.

For the molecule `Oc1cc(-c2ncc3c(N4CCC5COCC5C4)nc(OCC45CCCN4CCC5)nc3c2F)c2ccccc2c1` (stereo not drawn) [Example 51, 4-[4-(3,3a,4,6,7,7a-hexahydro-1H-furo[3,4-c]pyridin-5-yl)-8-fluoro-2-(1,2,3,5,6,7-hexahydropyrrolizin-8-ylmethoxy)pyrido [4,3-d]pyrimidin-7-yl]naphthalen-2-ol], the IC50 on KRAS WT, on KRAS G12V, on KRAS G12D and against KRAS G12C was 100 to 10000 nM each time.

Regarding `O=C1CCN(c2nc(OCC34CCCN3CCC4)nc3c(F)c(-c4cc(O)cc5ccccc45)ncc23)CCO1` [Example 72, 4-[8-fluoro-2-(1,2,3,5,6,7-hexahydropyrrolizin-8-ylmethoxy)-7-(3-hydroxy-1-naphthyl)pyrido[4,3-d]pyrimidin-4-yl]-1,4-oxazepan-7-one], the IC50 against KRAS WT, against KRAS G12V, on KRAS G12D and at KRAS G12C was 100 to 10000 nM in each case.

`OCC1CCN(c2nc(OCC34CCCN3CCC4)nc3c(F)c(-c4cc(O)cc5ccccc45)ncc23)C1` (stereo not drawn) [Example 73, 4-[8-fluoro-2-(1,2,3,5,6,7-hexahydropyrrolizin-8-ylmethoxy)-4-[3-(hydroxymethyl)pyrrolidin-1-yl]pyrido[4,3-d]pyrimidin-7-yl]naphthalen-2-ol]: the IC50 on KRAS WT, on KRAS G12V, on KRAS G12D and at KRAS G12C was 100 to 10000 nM in each case.

With `CC(C)(O)C1CCN(c2nc(OCC34CCCN3CCC4)nc3c(F)c(-c4cc(O)cc5ccccc45)ncc23)C1` (stereo not drawn) [Example 74, 4-[8-fluoro-2-(1,2,3,5,6,7-hexahydropyrrolizin-8-ylmethoxy)-4-[3-(1-hydroxy-1-methyl-ethyl)pyrrolidin-1-yl]pyrido[4,3-d]pyrimidin-7-yl]naphthalen-2-ol], the IC50 on KRAS WT is 100 to 10000 nM; on KRAS G12V (recombinant human KRAS G12V aa1-188, 4 nM, lowest class = % inhibition at 10 μM) it was greater than 10000 nM; at KRAS G12D, greater than 10000 nM; on KRAS G12C (recombinant human KRAS G12C aa1-188, 4 nM, lowest class = % inhibition at 10 μM) it was greater than 10000 nM.

In the case of `CN1CCCN(c2nc(OCC34CCCN3CCC4)nc3c(F)c(-c4cc(O)cc5ccccc45)ncc23)CC1=O` [Example 75, 4-[8-fluoro-2-(1,2,3,5,6,7-hexahydropyrrolizin-8-ylmethoxy)-7-(3-hydroxy-1-naphthyl)pyrido[4,3-d]pyrimidin-4-yl]-1-methyl-1,4-diazepan-2-one], the IC50 at KRAS WT, at KRAS G12V, on KRAS G12D and against KRAS G12C was 100 to 10000 nM throughout.

On to `O=C1CC2(CCN(c3nc(OCC45CCCN4CCC5)nc4c(F)c(-c5cc(O)cc6ccccc56)ncc34)C2)CN1` (stereo not drawn) [Example 76, 2-[8-fluoro-2-(1,2,3,5,6,7-hexahydropyrrolizin-8-ylmethoxy)-7-(3-hydroxy-1-naphthyl)pyrido[4,3-d]pyrimidin-4-yl]-2,7-diazaspiro[4.4] nonan-8-one], for which the IC50 against KRAS WT is 100 to 10000 nM; against KRAS G12V it was 100 to 10000 nM; at KRAS G12D, greater than 10000 nM; against KRAS G12C, 100 to 10000 nM.

Turning to `O=C1NCCC12CCN(c1nc(OCC34CCCN3CCC4)nc3c(F)c(-c4cc(O)cc5ccccc45)ncc13)CC2` [Example 77, 8-[8-fluoro-2-(1,2,3,5,6,7-hexahydropyrrolizin-8-ylmethoxy)-7-(3-hydroxy-1-naphthyl)pyrido[4,3-d]pyrimidin-4-yl]-2,8-diazaspiro[4.5]decan-1-one], the IC50 on KRAS WT, on KRAS G12V, on KRAS G12D and on KRAS G12C was 100 to 10000 nM in each case.

Turning to `CN1CCN(c2nc(OCC34CCCN3CCC4)nc3c(F)c(-c4cc(O)cc5ccccc45)ncc23)CCC1=O` [Example 78, 1-[8-fluoro-2-(1,2,3,5,6,7-hexahydropyrrolizin-8-ylmethoxy)-7-(3-hydroxy-1-naphthyl)pyrido[4,3-d]pyrimidin-4-yl]-4-methyl-1,4-diazepan-5-one], the IC50 against KRAS WT, against KRAS G12V, on KRAS G12D and on KRAS G12C was 100 to 10000 nM throughout.

`OCC1CCN(c2nc(OCC34CCCN3CCC4)nc3c(F)c(-c4cc(O)cc5ccccc45)ncc23)CC1` [Example 79, 4-[8-fluoro-2-(1,2,3,5,6,7-hexahydropyrrolizin-8-ylmethoxy)-4-[4-(hydroxymethyl)-1-piperidyl]pyrido[4,3-d]pyrimidin-7-yl]naphthalen-2-ol]: the IC50 against KRAS WT, against KRAS G12V, on KRAS G12D and on KRAS G12C was 10 to 100 nM each time.

Take `O=C1CC2(CCN(c3nc(OCC45CCCN4CCC5)nc4c(F)c(-c5cc(O)cc6ccccc56)ncc34)CC2)CN1` [Example 81, 8-[8-fluoro-2-(1,2,3,5,6,7-hexahydropyrrolizin-8-ylmethoxy)-7-(3-hydroxy-1-naphthyl)pyrido[4,3-d]pyrimidin-4-yl]-2,8-diazaspiro[4.5]decan-3-one]: the IC50 on KRAS WT lay in the range of 100 to 10000 nM; at KRAS G12V it was 10 to 100 nM; on KRAS G12D it was 100 to 10000 nM; on KRAS G12C it was 100 to 10000 nM.

As to `O=C1NCc2ccc(Nc3nc(OCC45CCCN4CCC5)nc4c(F)c(-c5cc(O)cc6ccccc56)ncc34)cc21` [Example 82, 6-[[8-fluoro-2-(1,2,3,5,6,7-hexahydropyrrolizin-8-ylmethoxy)-7-(3-hydroxy-1-naphthyl)pyrido[4,3-d]pyrimidin-4-yl]amino]isoindolin-1-one], the IC50 on KRAS WT lay within 100 to 10000 nM; at KRAS G12V, 10 to 100 nM; on KRAS G12D it was 100 to 10000 nM; at KRAS G12C, 100 to 10000 nM.

In the case of `Nc1cc2ccccc2c(-c2ncc3c(N4CCCOCC4)nc(OCC45CCCN4CCC5)nc3c2F)n1` [Example 91, 1-[8-fluoro-2-(1,2,3,5,6,7-hexahydropyrrolizin-8-ylmethoxy)-4-(1,4-oxazepan-4-yl)pyrido[4,3-d]pyrimidin-7-yl]isoquinolin-3-amine], the IC50 at KRAS WT, against KRAS G12V, at KRAS G12D and against KRAS G12C was 100 to 10000 nM in each case.
